Test results: patent US20220000832A1 (priority 2019, published 2022)
Like-named read-outs stand apart in the source and are kept apart here.

What was measured:
[1] = system: Melb-a (melanoblast) cells; assay: cells; assay type: cell-based
[2] = system: melb-a cells (melanoblasts); assay: cells; assay type: cell-based; conditions: for fold induction at 10 µM / fold induction at 1 µM / fold induction at 100 µM: read-out: Increase of cell migration rate compared to negative control
[3] = system: Melb-a (melanoblast) cells
[4] = 96 h, read-out: Melanin content compared to negative control (%)
[5] = 24 h, read-out: Cell migration rate (%)

Row | Structure (SMILES) | activity at 10 µM [1, 4] | fold induction at 10 µM ([2]; 24 h) | activity at 10 µM [2, 5] | further results
1 | O=Cc1ccc(C(=O)OCc2ccccc2)o1 [Example 7, Benzyl 5-formylfuran-2-carboxylate] | 134 ± 2.32% | > 2 | 202 ± 61.9% | –
2 | COC(=O)c1ccc(C=O)o1 [Example 10, methyl 5-formylfuran-2-carboxylate] | – | > 2 | – | Melanin content compared to negative control (in words) [1]: gradually increased; Melanin content (in words) ([1]; 100 μM): somewhat reduced; activity at 1 µM [1, 4]: 136 ± 5.19%; activity at 100 µM [1, 4]: 159 ± 1.77%; Cell viability ([3]; mouse): ≥ 99%; Cell migration rate compared to negative control (in words) [2]: gradually increased; fold induction at 1 µM ([2]; 24 h): ~1.9; fold induction at 100 µM ([2]; 24 h, 100 μM): ~2.7; activity at 1 µM [2, 5]: 189 ± 11.4%; activity at 100 µM [2, 5]: 283 ± 7.03%
3 | O=Cc1ccc(C=O)o1 [Example 17, Furan-2,5-dicarbaldehyde] | 95.3 ± 6.49% | – | 118 ± 21.9% | Melanin content compared to negative control (in words) ([1]; 10 μM): lowered; Cell viability (in words) [3]: very low; Cell viability (%) ([3]; mouse): 23.08 ± 5.95%; Cell viability (in words) ([3]; mouse): low compared to when the compound of Example 1 was treated
4 | CC(O)c1ccc(C=O)o1 (centres unmarked) [Example 18, 5-(1-hydroxyethyl)furan-2-carbaldehyde] | – | > 2 | – | Melanin content compared to negative control (in words) [1]: slightly increased; Melanin content (in words) ([1]; 100 μM): decreased; activity at 1 µM [1, 4]: 125 ± 3.04%; activity at 100 µM [1, 4]: 128 ± 4.15%; Cell migration rate compared to negative control (in words) [2]: gradually increased; Cell migration rate (in words) ([2]; 100 μM): rather decreased; fold induction at 1 µM ([2]; 24 h): ~1.7; activity at 1 µM [2, 5]: 177 ± 25.5%; activity at 100 µM [2, 5]: 167 ± 20.3%
5 | CCC(O)c1ccc(C=O)o1 (centres unmarked) [Example 20, 5-(1-hydroxypropyl)furan-2-carbaldehyde] | 112 ± 1.5% | > 2 | 261 ± 16.8% | –
6 | O=Cc1ccc(C(=O)NCc2ccccc2)o1 [Example 4, N-benzyl-5-formylfuran-2-carboxamide] | 97.4 ± 4.47% | – | 115 ± 19.5% | –
7 | CCCNC(=O)c1ccc(C=O)o1 [Example 5, 5-formyl-N-propylfuran-2-carboxamide] | 94.3 ± 1.51% | > 2 | 229 ± 11.6% | –
8 | CCOC(=O)c1ccc(CO)o1 [Example 11, ethyl 5-(hydroxymethyl)furan-2-carboxylate] | 104 ± 4.63% | – | 112 ± 13.9% | –
9 | COC(=O)c1ccc(C(OC)OC)o1 [Example 9, methyl 5-(dimethoxymethyl)furan-2-carboxylate] | 131 ± 2.03% | > 2 | – | Melanin content compared to negative control (in words) [1]: gradually increased; activity at 1 µM [1, 4]: 128 ± 7.18%; activity at 100 µM [1, 4]: 142 ± 5.43%; Cell viability ([3]; mouse): ≥ 99%; Cell migration rate compared to negative control (in words) [2]: gradually increased; fold induction at 1 µM ([2]; 24 h): ~1.9; fold induction at 100 µM ([2]; 24 h, 100 μM): ~3; activity at 1 µM [2, 5]: 198 ± 6.81%; activity at 100 µM [2, 5]: 303 ± 18.7%
10 | CC(O)c1ccc(COC2CCCCO2)o1 (centres unmarked) [Example 15, 1-(5-(((tetrahydro-2H-pyran-2-yl)oxy)methyl)furan-2-yl)ethanol] | 144 ± 4.59% | – | 197 ± 33.8% | –
11 | CCC(OC(C)=O)c1ccc(C=O)o1 (centres unmarked) [Example 21, 1-(5-formylfuran-2-yl)propyl Acetate] | 115 ± 2.96% | > 2 | 260 ± 16.5% | –
12 | O=Cc1ccc(COCc2ccccc2)o1 [Example 2, 5-((benzyloxy)methyl)furan-2-carbaldehyde] | 82.4 ± 4.25% | – | 114 ± 18.9% | –
13 | C=CCOCc1ccc(C=O)o1 [Example 3, 5-((allyloxy)methyl)furan-2-carbaldehyde] | 95.2 ± 7.54% | – | 134 ± 11.7% | –
14 | CC(=O)OC(C)c1ccc(C=O)o1 (centres unmarked) [Example 19, 1-(5-formylfuran-2-yl)ethyl Acetate] | 116 ± 3.15% | > 2 | 230 ± 25.1% | –
15 | OCc1ccc(CO)o1 [Example 12, Furan-2,5-diyldimethanol] | 139 ± 1.6% | – | 173 ± 29.9% | –
16 | COC(=O)c1ccc(CO)o1 [Example 13, methyl 5-(hydroxymethyl)furan-2-carboxylate] | 145 ± 5.9% | – | 161 ± 29.4% | –
17 | C=CCOC(=O)c1ccc(C=O)o1 [Example 8, allyl 5-formylfuran-2-carboxylate] | 122 ± 5.15% | – | 178 ± 19.8% | –
18 | CNC(=O)c1ccc(C=O)o1 [Example 6, 5-formyl-N-methylfuran-2-carboxamide] | 95.9 ± 2.87% | – | 139 ± 17.5% | –
19 | O=Cc1ccc(CO)o1 [Example 1, 5-(hydroxymethyl)furan-2-carbaldehyde] | – | 2.7 | – | Melanin content compared to negative control (in words) [1]: gradually increased; Melanin content (in words) ([1]; 1000 μM): rather reduced; activity at 1000 µM [1, 4]: 149 ± 17.4%; Cell viability ([3]; mouse): ≥ 105%; Cell migration rate (in words) [2]: decreased; Cell migration rate compared to negative control (in words) [2]: gradually increased; fold induction at 1 µM ([2]; 24 h): 2; fold induction at 100 µM ([2]; 24 h, 100 μM): ~4; activity at 25 µM [2, 5]: 263 ± 12.7%; activity at 50 µM [2, 5]: 309 ± 15.5%; activity at 1000 µM [2, 5]: 253 ± 13.4%
20 | CC(O)c1ccc(CO)o1 (centres unmarked) [Example 16, 1-(5-(hydroxymethyl)furan-2-yl)ethanol] | 139 ± 19.9% | > 2 | 215 ± 13.9% | –
21 | O=C(O)c1ccc(CO)o1 [Example 14, 5-(hydroxymethyl)furan-2-carboxylic Acid] | 158.4 ± 0.75% | > 2 | 264 ± 7.81% | –
